Assay results from PubChem BioAssay (NCI).
Several values for one entry are separate records, joined by “and”; a condition that tells them apart may be missing. Equal entries are not always repeated.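 Briefly, cells in 96-well plates were exposed to five compound concentrations for 48 h, and endpoints were estimated by linear interpolation. GI50 marks 50% less growth. TGI: concentration producing complete growth inhibition.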

Key:
Assay in all cases: growth of human tumour cells (NCI), 48 h
[1] = test system: A549 NSCLC
[2] = test system: MCF7 breast
[3] = test system: UO-31 renal
[4] = test system: SR leukemia
[5] = test system: HOP-92 NSCLC
[6] = test system: CCRF-CEM leukemia
[7] = test system: HCT-116 colon
[8] = test system: RPMI-8226 leukemia
[9] = test system: SF-539 CNS
[10] = test system: BT-549 breast

Structure (SMILES)	GI50 [1]	TGI [1]	GI50 [2]	TGI [2]	GI50 [3]	TGI [3]	GI50 [4] [µM]	TGI [4] [µM]	GI50 [5]	TGI [5]	GI50 [6]	TGI [6]	GI50 [7]	TGI [7]	GI50 [8]	TGI [8]	GI50 [9]	TGI [9]	GI50 [10]	TGI [10]
O=C1C(=O)c2c(nc3ccc(Br)cn23)-c2ccccc21	1.66 µM	3.81 µM	0.385 µM	1.08 µM	0.48 µM	1.24 µM	0.33	1.52	1.22 µM	2.7 µM	1.25 µM	5.18 µM	0.314 µM	1.2 µM	0.388 µM	2.67 µM	0.472 µM	1.01 µM	1.37 µM	2.67 µM
COC(=O)[C@]12CC[C@@H](C)[C@H](C)[C@@H]1C1=CC[C@@H]3[C@@]4(C)C(C=O)=C[C@@](C)(COC(C)=O)C4=CC[C@@]3(C)[C@]1(C)CC2	3.82 µM	16.2 µM	2.99 µM	12.5 µM	3.61 µM	16 µM	2.22	7.83	2.63 µM	16.3 µM	1.95 µM	7.82 µM	2.47 µM	10.4 µM	2 µM	5.7 µM	10.5 µM	26 µM	6.9 µM	25.9 µM
COc1ccc(C(SCC(N)C(=O)O)(c2ccccc2)c2ccccc2)cc1 (stereo unspecified)	0.594 µM	> 100 µM	0.0385 µM	> 100 µM	13.6 µM	> 100 µM	3.21	> 100	2 µM	66.8 µM	0.0992 µM	> 100 µM	0.043 µM	25.8 µM	0.0419 µM	> 56.5 µM	0.0721 µM	15.1 µM	2.72 µM	> 100 µM
NC(=O)c1ccc(NN=O)nc1		> 100 µM		> 100 µM		> 100 µM		> 100	> 100 µM	> 100 µM		> 100 µM		> 100 µM	> 100 µM	> 100 µM		> 100 µM		> 100 µM
CN(C)CCNC(=O)C(C)(C)Oc1ccc(C(=O)c2ccc(Cl)cc2)cc1Cl	12.2 µM	24.6 µM	3.8 µM	24.3 µM		22.8 µM	3.48	> 100		18.1 µM	5.31 µM	> 77.3 µM		20 µM	3.32 µM	> 48.7 µM		22.2 µM		23.9 µM
C/C(=C\CCc1ccoc1)CC/C=C(\C)CCCN1CCOCC1	9.08 µM	23.2 µM	2.71 µM	11.2 µM	10.3 µM	24.6 µM	3.12	9.69	1.43 µM	5.49 µM	2.79 µM	11 µM	2.27 µM	10.2 µM	1.88 µM	4.99 µM	5.49 µM	19.7 µM	1.88 µM	8.74 µM
O=C1Nc2c(C(F)(F)F)cccc2[C@@]1(c1ccc(O)cc1)c1ccc(OC(F)(F)F)cc1	0.0186 µM	0.0414 µM	< 0.01 µM	0.0269 µM	0.0143 µM	0.028 µM	10.5	29.5	0.0136 µM	0.0802 µM	14.5 µM	45.9 µM	< 0.0172 µM		8.99 µM	50.8 µM	0.0161 µM	0.0446 µM	< 0.01 µM	< 0.0132 µM
Clc1ccc2c(c1)N(c1ncnc3ccc(-c4cnc5[nH]ccc5c4)cc13)CC2	2.61 µM	17.7 µM	0.54 µM	> 100 µM	0.484 µM	16.7 µM	0.595	> 100	2.61 µM	31.5 µM	1.71 µM	> 100 µM	1.36 µM	14.7 µM	0.766 µM	> 100 µM	6.8 µM	48.7 µM	0.949 µM	47.8 µM
CCCCCCCCCCCCCC1=NCCN1CCO	3.52 µM	> 100 µM	2.4 µM	6.89 µM	2.46 µM	6.16 µM	3.75	> 100	3.65 µM	23.6 µM	10.5 µM	> 100 µM	2.3 µM	5.27 µM	6.5 µM	> 81.5 µM	1.95 µM	3.94 µM	13.4 µM	31.8 µM
Cc1ccc(C(SCC(N)C(=O)O)(c2ccc(C)cc2)c2ccc(C)cc2)cc1 (stereo unspecified)	2.62 µM	16.8 µM	0.895 µM	18.4 µM	9.79 µM	40.4 µM	1.92	6.91	2.87 µM	17.5 µM	3.08 µM	55.4 µM	0.829 µM	13 µM	2.27 µM	12.5 µM	1.22 µM	7.5 µM	3.33 µM	20.5 µM
COc1ccc2c(c1)[nH]c(=O)c1c3cc(OC)ccc3cn21	0.0265 µM	1.28 µM	0.0277 µM	0.597 µM	0.028 µM	1.9 µM	< 0.0106	0.062	0.21 µM	2.09 µM	< 0.0132 µM	0.0751 µM	< 0.01 µM	1.08 µM	0.016 µM	0.0874 µM	0.0179 µM	0.0498 µM	< 0.031 µM	1.19 µM
O=C(c1ccccc1)c1ccc(Oc2ccc([N+](=O)[O-])cc2[N+](=O)[O-])cc1	19.7 µM	59.7 µM	3.71 µM	19.7 µM	2.05 µM	7.76 µM	2.6	7.79	2.87 µM	9.27 µM	2.89 µM	> 100 µM	3.29 µM	26.2 µM	2.56 µM	7.72 µM	2.7 µM	7.32 µM	3.75 µM	40.3 µM
C=CC(=O)NCc1cccc(Nc2ncc(Br)c(NCCCNC(=O)C3CCC3)n2)c1	1.49 µM and 0.901 µM	12.5 µM and 11.6 µM	1.88 µM and 0.537 µM	12.5 µM and 4.77 µM	0.256 µM and 0.26 µM	1.11 µM and 0.916 µM	0.394	12.5	0.637 µM and 0.596 µM	5.21 µM and 16.4 µM	0.707 µM and 0.454 µM	12.5 µM and > 25 µM	1.75 µM and 0.603 µM	12.5 µM and 14.3 µM	1.92 µM and 1.88 µM	8.19 µM and > 25 µM	0.369 µM and 0.475 µM	2.03 µM and 2.72 µM	0.698 µM and 0.515 µM	2.55 µM and 2.42 µM
O=[N+]([O-])c1ccccc1N/N=C\c1c[nH]c2ccccc12	20.2 µM	> 100 µM	0.85 µM	> 100 µM	0.658 µM	> 65.9 µM	3.4	> 100	4.45 µM	49.2 µM	5.1 µM	> 100 µM	13.7 µM	> 100 µM	47.4 µM	> 100 µM	12.4 µM	31.2 µM	> 21.5 µM	> 100 µM
COc1ccc(C(=O)COC(=O)[C@H](C[Se][Se]C[C@H](NC(=O)c2ccc(Br)cc2F)C(=O)OCC(=O)c2ccc(OC)cc2)NC(=O)c2ccc(Br)cc2F)cc1	0.421 µM	3.79 µM	1.52 µM	4.1 µM	0.579 µM	1.68 µM	0.478	4.82	2.04 µM	5.87 µM	2.5 µM	11.6 µM	0.949 µM	2.78 µM	0.502 µM	5.69 µM	0.321 µM	0.976 µM	0.86 µM	2.47 µM
C=CC(C1=CC(=O)C(OC)=CC1=O)c1ccccc1 (stereo unspecified)		> 62 µM		26.2 µM		29.6 µM		26.5		11.8 µM		6.77 µM		23.4 µM		> 67.6 µM		29.9 µM		29.9 µM
NC1CCC(Nc2nc(NCc3ccc(-c4cccs4)nc3)c3ncn(C4CCCC4)c3n2)CC1 (stereo unspecified)	0.0237 µM	2.04 µM	0.0301 µM	1.14 µM	0.203 µM	0.661 µM	0.0328	0.582	0.03 µM	0.134 µM	0.0329 µM	0.554 µM	0.0332 µM	1.15 µM	0.0227 µM	0.137 µM	0.157 µM	0.395 µM	0.131 µM	0.626 µM
C[C@H](Nc1ncnc2nc[nH]c12)c1cc2ccc(F)cc2nc1-c1ccccn1	> 100 µM	> 100 µM	28.4 µM	> 100 µM	9.3 µM	> 100 µM	33.4	> 100	3.43 µM	> 100 µM	> 70.2 µM	> 100 µM	> 100 µM	> 100 µM	> 100 µM	> 100 µM	> 94.7 µM	> 100 µM	36.2 µM	> 100 µM
CCN1C(=O)N(CC)C2Nn3c(s/c(=C\c4ccccc4Br)c3=O)=NC21 (stereo unspecified)	1.23 µM	> 100 µM	1.78 µM	> 100 µM	2 µM	> 100 µM	0.573	8.3	4.14 µM	80.8 µM	1.32 µM	> 100 µM	0.497 µM	> 100 µM	1.79 µM	15.2 µM	0.889 µM	3.08 µM	3.2 µM	17.4 µM
O=C(CN(/C=C/C(=O)C(F)(F)F)c1ccc(Cl)cc1)c1ccccc1	12 µM	> 100 µM	> 100 µM	> 100 µM	13.5 µM	29.9 µM	14.8	57	10.4 µM	28.1 µM	8.8 µM	33.5 µM	11.6 µM	23.7 µM	12.9 µM	89.3 µM	13.1 µM	27.8 µM	20.5 µM	41.4 µM
CC(=O)c1cc(C(=O)c2ccc3c(c2)Sc2ccccc2N3)c2c(C)cc(C)cn12	0.337 µM	> 55.6 µM	0.239 µM	> 100 µM	0.635 µM	> 100 µM	0.302	> 100	1.24 µM	> 31 µM	0.277 µM	> 100 µM	0.263 µM	> 100 µM	0.361 µM	> 27.9 µM	0.185 µM	0.535 µM	0.368 µM	> 21.3 µM
C[C@]12CC[C@H](O)C[C@H]1CC[C@@H]1[C@@H]2CC[C@]2(C)[C@@H](C3=CC(=O)OC3)[C@@H](O)C[C@]12O		1.65 µM		11.1 µM		2.26 µM		3.63		> 100 µM		2.42 µM		4.37 µM		8.07 µM		2.28 µM		7.32 µM
Cc1cc(O)ccc1C1=NN(c2ccc(S(C)(=O)=O)cc2)C(=O)CC1	6.2 µM	> 100 µM	20.7 µM	> 100 µM	14.8 µM	> 100 µM	3.39	> 100	6.49 µM	> 100 µM	9.09 µM	> 100 µM	3.78 µM	> 100 µM	25.6 µM	> 100 µM	13.2 µM	> 100 µM	4.97 µM	> 100 µM
CS(=O)(=O)Nc1ccc(-c2cc(-c3ccccc3)cc(C(N)=O)c2N)cc1	20.2 µM	> 25 µM	> 20.5 µM	> 25 µM	14.7 µM	> 25 µM	16.5	> 25	8.9 µM	> 25 µM	17.8 µM	> 25 µM	> 25 µM	> 25 µM	18.4 µM	> 25 µM	> 25 µM	> 25 µM	> 25 µM	> 25 µM
COc1cc(-c2nc3ccccc3s2)ccc1NC(=O)COc1ccc(Cl)cc1	3.07 µM	> 100 µM	5.05 µM	> 100 µM	1.49 µM	> 100 µM	76.5	> 100	1.66 µM	4.99 µM	> 100 µM	> 100 µM	4.41 µM	> 100 µM	11.8 µM	> 100 µM	61.6 µM	> 100 µM	> 100 µM	> 100 µM
